Type in all cases: functional
One assay concerns Microsporum canis. The experiment in a line: Antifungal activity against Microsporum canis assessed as lowest dose required to total inhibition of fungal growth.
In assay [1] the test system is Trichophyton mentagrophytes. As to the kind of experiment: Antifungal activity against Trichophyton mentagrophytes assessed as lowest dose required to total inhibition of fungal growth.
The subject of the next assay is Trichophyton rubrum. The experiment in a line: Antifungal activity against Trichophyton rubrum assessed as lowest dose required to total inhibition of fungal growth.
Another assay concerns Cryptococcus neoformans. The experiment in a line: Antifungal activity against Cryptococcus neoformans assessed as lowest dose required to total inhibition of fungal growth.
Another assay has as its system Candida tropicalis. As to the kind of experiment: Antifungal activity against Candida tropicalis assessed as lowest dose required to total inhibition of fungal growth.
The test system of a further assay is Candida albicans. The experiment in a line: Antifungal activity against Candida albicans assessed as lowest dose required to total inhibition of fungal growth.
The next assay relates to Mucor. As to the kind of experiment: Antifungal activity against Mucor species assessed as lowest dose required to total inhibition of fungal growth.
In another assay the test system is Aspergillus fumigatus. The experiment in a line: Antifungal activity against Aspergillus fumigatus assessed as lowest dose required to total inhibition of fungal growth.
For the next assay, the system named is Sporothrix schenckii. As to the kind of experiment: Antifungal activity against Sporothrix schenckii assessed as lowest dose required to total inhibition of fungal growth.
Another assay has as its system Saprolegnia. The experiment in a line: Antifungal activity against Saprolegnia species assessed as lowest dose required to total inhibition of fungal growth.
A further assay relates to Phialophora verrucosa. As to the kind of experiment: Antifungal activity against Phialophora verrucosa assessed as lowest dose required to total inhibition of fungal growth.
The test system of assay [2] is Erysipelothrix rhusiopathiae. As to the kind of experiment: Antibaterial activity against Erysipelothrix insidiosa assessed as lowest dose required to total inhibition of bacterial growth.
Assay [3] deals with Staphylococcus haemolyticus. As to the kind of experiment: Antibaterial activity against Staphylococcus haemolyticus assessed as lowest dose required to total inhibition of bacterial growth.
The subject of the next assay is Streptococcus pyogenes. As to the kind of experiment: Antibaterial activity against Streptococcus pyogenes assessed as lowest dose required to total inhibition of bacterial growth.

In ChEMBL document CHEMBL3272010, “Antimycotic imidazoles. 3. Synthesis and antimycotic properties of 1-[2-(aryloxyalkyl)-2-phenylethyl]-1H-imidazoles” (1977) one finds GI data, which are given here for ten compounds.

Where only a bound is given, the exact number is not on record here.

`COc1ccc(OCCCC(Cn2ccnc2)c2ccc(Cl)cc2Cl)cc1.O=C(O)C(=O)O` (stereo not given): the GI was 10 µg/mL in the assay on Microsporum canis; below 1 µg/mL in assay [1]; below 1 µg/mL in the assay with Trichophyton rubrum; below 1 µg/mL in the assay on Cryptococcus neoformans; above 100 µg/mL in the assay with Candida tropicalis; 10 µg/mL in the assay on Candida albicans. Also, the GI in the assay on Mucor is 100 µg/mL; in the assay on Aspergillus fumigatus, 10 µg/mL; in the assay with Sporothrix schenckii, below 1 µg/mL; with Saprolegnia, below 1 µg/mL; in the assay with Phialophora verrucosa it was 10 µg/mL; in assay [2] it was below 1 µg/mL. Moreover, the GI in [3] is 100 µg/mL; in the assay with Streptococcus pyogenes, below 1 µg/mL.
Turning to `Clc1ccc(OCC(Cn2ccnc2)c2ccc(Cl)cc2)cc1.O=[N+]([O-])O` (stereo not given), the GI with Microsporum canis was below 1 µg/mL; in assay [1], below 1 µg/mL; with Trichophyton rubrum, below 1 µg/mL; in the assay with Cryptococcus neoformans, below 1 µg/mL; in the assay on Candida tropicalis it was above 100 µg/mL; with Candida albicans it was above 100 µg/mL. Besides, the GI in the assay with Mucor was determined as 10 µg/mL; in the assay with Aspergillus fumigatus it was 100 µg/mL; with Sporothrix schenckii it was 10 µg/mL; with Saprolegnia, 100 µg/mL; in the assay with Phialophora verrucosa, 100 µg/mL; in assay [2], 1 µg/mL. Moreover, the results for the GI (in assay [3]; in the assay on Streptococcus pyogenes) were 10 µg/mL and below 1 µg/mL, respectively.
Turning to `Clc1ccc(C(COc2ccc(Cl)cc2Cl)Cn2ccnc2)cc1.O=[N+]([O-])O` (stereo not given), the GI was 10 µg/mL in the assay with Microsporum canis; below 1 µg/mL in assay [1]; below 1 µg/mL in the assay on Trichophyton rubrum; below 1 µg/mL in the assay on Cryptococcus neoformans; above 100 µg/mL in the assay on Candida tropicalis; 10 µg/mL in the assay on Candida albicans. The GI in the assay with Mucor is above 100 µg/mL; in the assay on Aspergillus fumigatus, 100 µg/mL; with Sporothrix schenckii, 10 µg/mL; with Saprolegnia it was above 100 µg/mL; in the assay on Phialophora verrucosa it was 100 µg/mL; in [2], 1 µg/mL. Moreover, the GI in assay [3] was 10 µg/mL; in the assay with Streptococcus pyogenes, below 1 µg/mL.
`Clc1ccc(C(CCOc2ccccc2Br)Cn2ccnc2)c(Cl)c1.O=C(O)C(=O)O` (stereo not given): the GI was 100 µg/mL in the assay on Microsporum canis; below 1 µg/mL in assay [1]; below 1 µg/mL in the assay with Trichophyton rubrum; below 1 µg/mL with Cryptococcus neoformans; above 100 µg/mL with Candida tropicalis; above 100 µg/mL in the assay on Candida albicans. In addition, the GI is above 100 µg/mL in the assay on Mucor; above 100 µg/mL in the assay on Aspergillus fumigatus; 10 µg/mL in the assay on Sporothrix schenckii; 100 µg/mL with Saprolegnia; 100 µg/mL in the assay with Phialophora verrucosa; below 1 µg/mL in assay [2]. For the same compound, the GI was 10 µg/mL in [3] and below 1 µg/mL with Streptococcus pyogenes.
For the compound `Clc1ccc(COC(Cn2ccnc2)c2ccc(Cl)cc2Cl)c(Cl)c1` (stereo not given) [MICONAZOLE], the GI was 1 µg/mL in the assay with Microsporum canis; below 1 µg/mL in [1]; below 1 µg/mL in the assay with Trichophyton rubrum; 1 µg/mL with Cryptococcus neoformans; 100 µg/mL in the assay on Candida tropicalis; 10 µg/mL in the assay on Candida albicans. For the same compound, the GI was above 100 µg/mL in the assay on Mucor; 10 µg/mL in the assay on Aspergillus fumigatus; 1 µg/mL with Sporothrix schenckii; 10 µg/mL in the assay with Saprolegnia; 100 µg/mL in the assay with Phialophora verrucosa; below 1 µg/mL in assay [2]. The figures for the GI (in assay [3]; in the assay with Streptococcus pyogenes) were 10 µg/mL and below 1 µg/mL, respectively.
With `Fc1ccc(OCCCC(Cn2ccnc2)c2ccc(Cl)cc2Cl)cc1.O=C(O)C(=O)O` (stereo not given), the GI with Microsporum canis is below 1 µg/mL; in [1], below 1 µg/mL; with Trichophyton rubrum, below 1 µg/mL; with Cryptococcus neoformans it was below 1 µg/mL; in the assay on Candida tropicalis it was above 100 µg/mL; in the assay with Candida albicans it was above 100 µg/mL. Also, the GI in the assay on Mucor is above 100 µg/mL; with Aspergillus fumigatus, 100 µg/mL; with Sporothrix schenckii, below 1 µg/mL; with Saprolegnia, 10 µg/mL; in the assay on Phialophora verrucosa, 100 µg/mL; in assay [2], 1 µg/mL. Also, the GI in [3] worked out at 10 µg/mL; in the assay on Streptococcus pyogenes it was 1 µg/mL.
For the compound `Clc1ccc(C(CCCOc2ccccc2Br)Cn2ccnc2)c(Cl)c1.O=C(O)C(=O)O` (stereo not given), the GI is below 1 µg/mL in the assay on Microsporum canis; below 1 µg/mL in assay [1]; below 1 µg/mL in the assay with Trichophyton rubrum; below 1 µg/mL in the assay on Cryptococcus neoformans; above 100 µg/mL in the assay on Candida tropicalis; 100 µg/mL with Candida albicans. Besides, the GI in the assay on Mucor was above 100 µg/mL; with Aspergillus fumigatus, 100 µg/mL; in the assay on Sporothrix schenckii it was 10 µg/mL; with Saprolegnia, 100 µg/mL; in the assay on Phialophora verrucosa, 100 µg/mL; in assay [2], below 1 µg/mL. The GI was 10 µg/mL in assay [3] and below 1 µg/mL in the assay on Streptococcus pyogenes.
On to `Clc1ccc(C(COc2ccccc2Cl)Cn2ccnc2)cc1.O=[N+]([O-])O` (stereo not given), for which the GI is 100 µg/mL in the assay with Microsporum canis; below 1 µg/mL in assay [1]; 10 µg/mL in the assay on Trichophyton rubrum; below 1 µg/mL in the assay on Cryptococcus neoformans; above 100 µg/mL in the assay on Candida tropicalis; 100 µg/mL in the assay on Candida albicans. Besides, the GI in the assay on Mucor was 100 µg/mL; in the assay on Aspergillus fumigatus it was above 100 µg/mL; with Sporothrix schenckii it was 10 µg/mL; in the assay on Saprolegnia, above 100 µg/mL; in the assay on Phialophora verrucosa it was above 100 µg/mL; in assay [2], 1 µg/mL. Besides, the results for the GI (in [3]; in the assay with Streptococcus pyogenes) were 10 µg/mL and 1 µg/mL, respectively.
For the compound `Clc1ccc(OCCC(Cn2ccnc2)c2ccc(Cl)cc2Cl)cc1.O=[N+]([O-])O` (stereo not given), the GI with Microsporum canis is 10 µg/mL; in assay [1] it was below 1 µg/mL; with Trichophyton rubrum it was below 1 µg/mL; with Cryptococcus neoformans it was below 1 µg/mL; in the assay with Candida tropicalis, above 100 µg/mL; in the assay with Candida albicans, 10 µg/mL. Also, the GI is 10 µg/mL in the assay with Mucor; 100 µg/mL in the assay on Aspergillus fumigatus; 10 µg/mL in the assay on Sporothrix schenckii; 10 µg/mL in the assay with Saprolegnia; 100 µg/mL in the assay with Phialophora verrucosa; below 1 µg/mL in assay [2]. Moreover, the GI in [3] was 1 µg/mL; in the assay with Streptococcus pyogenes it was below 1 µg/mL.
As for `Clc1ccc(OCC(Cn2ccnc2)c2ccc(Cl)cc2Cl)c(Cl)c1.O=[N+]([O-])O` (stereo not given), the GI in the assay with Microsporum canis was below 1 µg/mL; in assay [1] it was below 1 µg/mL; in the assay with Trichophyton rubrum it was below 1 µg/mL; with Cryptococcus neoformans it was below 1 µg/mL; in the assay on Candida tropicalis, above 100 µg/mL; in the assay with Candida albicans it was above 100 µg/mL. In addition, the GI with Mucor is above 100 µg/mL; in the assay on Aspergillus fumigatus, above 100 µg/mL; with Sporothrix schenckii it was below 1 µg/mL; with Saprolegnia, above 100 µg/mL; with Phialophora verrucosa it was 100 µg/mL; in [2], below 1 µg/mL. The GI in assay [3] was 1 µg/mL; in the assay on Streptococcus pyogenes, below 1 µg/mL.
